Measured values reported in ChEMBL document CHEMBL5113385, “Natural products and synthetic analogues against HIV: A perspective to develop new potential anti-HIV drugs” (Eur J Med Chem, 2022).

Assays:
C8166 = assay: Cytotoxicity against human C8166 cells assessed as reduction in cell viability by MTT assay; type: functional
[1] = biological target: T1, Human immunodeficiency virus type 1 reverse transcriptase (Human immunodeficiency virus 1, UniProt Q72547); assay: Inhibition of wild-type HIV-1 reverse transcriptase by Picogreen assay
[2] = tested on: Human immunodeficiency virus 1; assay: Antiviral activity against HIV-1 NL4-3 infected in human TZM-bl cells assessed as viral growth inhibition by luciferase assay; type: functional, organism-based; conditions: Human immunodeficiency virus 1, NL4-3, TZM-bl
[3] = tested on: Human immunodeficiency virus 1; assay: Antiviral activity against HIV-1 IIIB infected in human MT4 cells assessed as reduction in cytopathic effect measured after 5 days by Cell Titer Glo assay; type: functional, organism-based; conditions: Human immunodeficiency virus 1, IIIB, MT4, 120 h
[4] = Selectivity index, ratio of IC50 for human 1A2 cells to EC50 for HIV-1 MC99 harboring deltaTat/Rev infected in human 1A2 cells; type: toxicity, cell-based; conditions: read-out: Ratio IC50/EC50
[5] = biological target: Human immunodeficiency virus type 1 reverse transcriptase (Human immunodeficiency virus 1) (UniProt Q72547); assay: Inhibition of HIV-1 reverse transcriptase using […] and oligo d(T)16 as primer at 200 ug/ml incubated for 1 hr by PicoGreen DNA fluorescence assay relative to control; conditions: dose 200.0 µg/ml
[6] = biological target: Human immunodeficiency virus type 1 reverse transcriptase (Human immunodeficiency virus 1) (UniProt Q72547); assay: Inhibition of HIV-1 reverse transcriptase at 200 ug/ml using poly(A) ribonucleotide as template and oligo d(T)16 as primer incubated for 1 hr by PicoGreen DNA fluorescence assay relative to control; conditions: dose 200.0 µg/ml
[7] = biological target: Human immunodeficiency virus type 1 integrase (Human immunodeficiency virus 1, UniProt Q7ZJM1); assay: Inhibition of recombinant HIV-1 subtype C integrase using double-stranded FITC-labelled target DNA as substrate pre-incubated for 45 mins followed by substrate addition measured after 60 mins by strand transfer inhibition assay
Human immunodeficiency virus type 1 integrase, sequence (Q7ZJM1 whole entry): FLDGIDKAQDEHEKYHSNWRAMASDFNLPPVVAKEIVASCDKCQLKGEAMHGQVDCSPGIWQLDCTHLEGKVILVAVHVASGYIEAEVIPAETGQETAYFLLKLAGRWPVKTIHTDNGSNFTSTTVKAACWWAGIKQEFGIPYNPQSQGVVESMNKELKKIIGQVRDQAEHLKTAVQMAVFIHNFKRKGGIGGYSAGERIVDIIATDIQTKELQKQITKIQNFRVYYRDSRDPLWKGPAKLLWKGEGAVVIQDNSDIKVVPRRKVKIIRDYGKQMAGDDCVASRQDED

[8] = biological target: Human immunodeficiency virus type 1 reverse transcriptase (Human immunodeficiency virus 1) (UniProt Q72547); assay: Displacement of [3H]TTP/polyA from HIV-1 reverse transcriptase at 200 ug/ml relative to control; conditions: dose 200.0 µg/ml
[9] = tested on: Human immunodeficiency virus 1; assay: Antiviral activity against HIV-1 infected in human C8166 cells assessed as reduction in virus-induced cytopathic effect by MTT assay; type: functional, organism-based; conditions: Human immunodeficiency virus 1, C8166
[10] = tested on: Human immunodeficiency virus 1; assay: Antiviral activity against HIV-1 assessed as viral growth inhibition; type: functional, organism-based
[11] = biological target: T1, Human immunodeficiency virus type 1 reverse transcriptase; assay: Inhibition of HIV-1 LTR reverse transcriptase infected in human CEM cells using RNA template incubated for 1 hr by RT-PCR based cell-free assay
[12] = biological target: Human immunodeficiency virus type 1 reverse transcriptase (Human immunodeficiency virus 1) (UniProt Q72547); assay: Inhibition of recombinant HIV-1 reverse transcriptase at 200 ug/ml by ELISA relative to control; conditions: dose 200.0 µg/ml
[13] = tested on: Human immunodeficiency virus; assay: Antiviral activity against HIV infected in human PBMC assessed as inhibition of viral infection at MOI of 0.5 incubated for 48 hrs followed by removal of infected supernatant and subsequent addition of supernatant to human LC-5 cells expressing DsRed1 measured after 72 hrs by EASY-HIT assay; type: functional, organism-based; conditions: Human immunodeficiency virus 1, PBMC
[14] = Inhibition of wild-type HIV-1 BH10 reverse transcriptase-associated RNase H expressed in Escherichia coli using [gamma-32P]ATP-labeled 31Trna/21P as template/primer preincubated for 5 mins followed by template/primer addition by PAGE analysis; set-up: species or system Human immunodeficiency virus 1
[15] = biological target: T1, Human immunodeficiency virus type 1 reverse transcriptase; assay: Inhibition of HIV-1 reverse transcriptase preincubated for 45 mins followed by substrate addition by immunoassay
[16] = tested on: Human immunodeficiency virus 1; assay: Antiviral activity against HIV-1 NL4-3 infected in human MT4 cells assessed as reduction in viral replication incubated for 48 hrs followed by addition of fresh medium containing compound measured after 2 days by ELISA; type: functional, organism-based; conditions: Human immunodeficiency virus 1, NL4-3, MT4, 48 h
[17] = tested on: Human immunodeficiency virus 1; assay: Antiviral activity against HIV-1 infected in human CEM-GFP cells assessed as inhibition of viral replication incubated for 68 hrs by MTT assay; type: functional, organism-based; conditions: Human immunodeficiency virus 1, CEM-GFP

## CC(C)(O)C(=O)Cc1cc2ccc(=O)oc2cc1O [PEUCEDANONE]
C8166
  CC50: > 200000 nM

## C=C(C)[C@@H]1Cc2c(cc3oc(=O)ccc3c2O)O1
C8166
  CC50: > 200000 nM

## N#Cc1ccc2c(Oc3ccccc3OCCn3ccc(=O)[nH]c3=O)cc(F)cc2c1
[1]
  IC50: 4.8 nM

## C=CC(C)(C)c1cc2cc3c(c(CC=C(C)C)c2oc1=O)O[C@H](C(C)(C)O)C3
C8166
  CC50: > 200000 nM

## CCCCCOC(=O)C[C@H](NP(=O)(CO[C@@H](CF)Cn1ccc2c(=O)[nH]c(N)nc21)Oc1ccccc1)C(=O)OCCCCC (stereo not given in full)
[2]
  IC50: 2000 nM

## COc1cc(F)c(Oc2cc(N)nc(Nc3ccc(C#N)cc3)n2)c(F)c1
[3]
  IC50: 3 nM

## COc1cc(OC)c([C@@H]2CC[C@H]3C[C@@H](c4cc(OC)c(OC)cc4OC)Oc4cc(OC)c(O)c2c43)cc1OC
[4]
  selectivity ratio: 3.7
[5]
  inhibition: 41.4%
[6]
  inhibition: 41.4%

## CC(=O)N[C@H]1[C@H](O[C@H]2CC[C@]3(C)[C@H]4CC=C5[C@@H]6CC(C)(C)CC[C@]6(C(=O)O)CC[C@@]5(C)[C@]4(C)CC[C@H]3C2(C)C)O[C@H](CO)[C@@H](O)[C@@H]1O
[7]
  IC50: 18300 nM

## O=c1cc(-c2ccc(O)cc2)oc2c([C@@H]3O[C@H](CO)[C@@H](O)[C@H](O)[C@H]3O)c(O)cc(O)c12
[8]
  inhibition: 56.9%

## CC1(C)CCc2cc3cc(O)c(=O)oc3cc2O1
C8166
  CC50: > 200000 nM

## C=CC(CO)[C@@H]1C[C@H]2c3[nH]c4ccccc4c3CCN2C(=O)[C@H]1CO (stereo not given in full)
[9]
  EC50: 12200 nM

## CCn1cc(C(=O)O)c(=O)c2cc(F)c(N3CCN(S(=O)(=O)c4ccc(OC)cc4)CC3)cc21
[10]
  IC50: 50 nM

## C#CCOCc1cn(C2CCON2C(=O)OCc2ccccc2)c(=O)[nH]c1=O (stereo not given)
[11]
  IC50: 50 nM

## O=c1cc(-c2ccc(O)c(O)c2)oc2c([C@@H]3O[C@H](CO)[C@@H](O)[C@H](O)[C@H]3O)c(O)cc(O)c12
[8]
  inhibition: 52%

## O=c1c(O)c(-c2ccc(O)c(O)c2)oc2cc(O)cc(O)c12
[12]
  inhibition: 43.4%

## COc1oc(C2C/C(=C/C(C)=C/c3ccc(C(F)(F)F)cc3)CO2)c(C)c(=O)c1C (stereo not given)
[13]
  IC50: < 45 nM

## Nc1ccc(S(=O)(=O)N2CCN(C(=O)c3cc(O)c(O)c(O)c3)CC2)cc1
[14]
  IC50: 720 nM

## CC(C)=CCc1cc(/C=C/C(=O)O)cc(CC=C(C)C)c1
[12]
  inhibition: 41.6%

## COc1cc(F)c(C(=O)c2cc(N)nc(Nc3ccc(C#N)cc3)n2)c(F)c1
[3]
  IC50: 4.2 nM

## CCCCCOC(=O)C[C@H](NP(=O)(CO[C@@H](CF)Cn1ccc2c(=O)[nH]c(N)nc21)N[C@@H](CC(=O)OCCCCC)C(=O)OCCCCC)C(=O)OCCCCC
[2]
  IC50: 2000 nM

## COc1cc2c(c(O)c1C)Oc1c(C=O)c(O)cc(C)c1C(=O)O2
[7]
  IC50: 4650 nM

## O=C1CSC(c2ccc(O)cc2)N1c1nc2ccc(Cl)cc2s1 (stereo not given)
[15]
  IC50: 300 nM

## CCCCC/C=C/C=C/O[C@@]12[C@@H]([C@H]3OCO[C@@]3(C(C)=O)[C@H](OC(=O)CCCCC)[C@H]1C)[C@@H]1O[C@]1(CO)[C@@H](O)[C@]1(O)C(=O)C(C)=C[C@H]12
[16]
  IC50: 0.9 nM

## CC1=C(C(=O)OCc2ccccc2)C(c2cccc(C(F)(F)F)c2)NC(=O)N1 (stereo not given)
[10]
  IC50: 15 µg/mL

## C=C(C)[C@]12C[C@@H](COC(C)=O)[C@@]34OC5(O[C@@H]1[C@@H]3[C@@H]1O[C@]1(CO)[C@@H](O)[C@@]1(O)[C@H]4[C@H]([C@H](C)[C@@H]1C(=O)c1ccccc1)[C@H](C)C[C@H](C(=O)c1ccccc1)[C@H](OC(C)=O)[C@@H](C(=O)c1ccccc1)CC[C@H]5O)O2
[16]
  IC50: ≤ 0.25 nM

## Cc1cc(=O)c2ccc(N=C=S)cc2o1
[17]
  IC50: 1000 nM

## COc1cc(F)c(Nc2cc(N)nc(Nc3ccc(C#N)cc3)n2)c(F)c1
[3]
  IC50: 2 nM

## CCOc1ccc(S(=O)(=O)N2CCN(c3cc4c(cc3F)c(=O)c(C(=O)O)cn4CC)CC2)cc1
[10]
  IC50: 80 nM
